Series [1] relates to thermal, mechanical, and chemical stimulations. The conditions noted are these: rat acute pain model; cited from earlier work.
In series [2] the target is T1, GlyT1 (Rattus norvegicus, UniProt P28572).
T1 construct: expressed in transfected cells; host or cells: COS7
T1 sequence (P28572 1-638): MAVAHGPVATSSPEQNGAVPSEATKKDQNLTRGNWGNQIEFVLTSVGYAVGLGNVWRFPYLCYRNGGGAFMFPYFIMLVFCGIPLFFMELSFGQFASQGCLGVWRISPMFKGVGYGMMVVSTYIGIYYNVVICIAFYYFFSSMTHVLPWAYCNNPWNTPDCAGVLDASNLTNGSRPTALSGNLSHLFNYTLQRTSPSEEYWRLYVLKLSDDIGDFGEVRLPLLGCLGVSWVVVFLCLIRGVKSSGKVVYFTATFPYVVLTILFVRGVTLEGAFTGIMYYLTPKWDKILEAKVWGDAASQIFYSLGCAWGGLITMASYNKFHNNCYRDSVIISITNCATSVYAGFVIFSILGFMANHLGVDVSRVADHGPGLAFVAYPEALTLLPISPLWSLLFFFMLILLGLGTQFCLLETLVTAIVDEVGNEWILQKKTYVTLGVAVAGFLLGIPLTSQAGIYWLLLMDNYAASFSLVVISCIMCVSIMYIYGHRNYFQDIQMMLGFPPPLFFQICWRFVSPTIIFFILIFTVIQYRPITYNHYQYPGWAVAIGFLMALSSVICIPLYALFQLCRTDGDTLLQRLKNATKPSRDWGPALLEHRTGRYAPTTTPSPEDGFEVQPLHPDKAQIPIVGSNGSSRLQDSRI
The series can be described thus: [3H]glycine transport by recombinant GlyT1 expressed in COS7 cells. The conditions noted are these: 10 μM glycine. The class given is cell-based. On the procedure: Substitution mutants were generated with the QuikChange II Site-Directed Mutagenesis kit (Agilent Technologies, Santa Clara, CA, USA), using rGlyT2 or rGlyT1 subcloned in pCDNA3.[47] The complete coding region of all of the constructs was sequenced to verify that only the desired mutation had been introduced. […] COS7 cells were grown and transfected using Turbofect Transfection Reagent (Thermo Fisher Scientific, Waltham, MA, USA), following the manufacturer’s protocol (2 μL reagent/μg of DNA). Cells were incubated for 48 h at 37 °C until used.
At the end of the desired time (usually 10 min), reactions were washed and terminated by aspiration. […] A nonlinear curve fitting method was used to obtain IC50 values using Graphpad Prism software, version 6.0, Graphpad, San Diego, CA, USA.

For series [3], the system named is GlyT1. To be noted: neuronal cultures and brain preparations; cited from earlier work.
The next series has as its target T2, GlyT2 I292C mutant (Rattus norvegicus, UniProt P58295, I292C).
T2 construct: expressed in transfected cells; host or cells: COS7
T2 sequence (P58295 1-799 I292C): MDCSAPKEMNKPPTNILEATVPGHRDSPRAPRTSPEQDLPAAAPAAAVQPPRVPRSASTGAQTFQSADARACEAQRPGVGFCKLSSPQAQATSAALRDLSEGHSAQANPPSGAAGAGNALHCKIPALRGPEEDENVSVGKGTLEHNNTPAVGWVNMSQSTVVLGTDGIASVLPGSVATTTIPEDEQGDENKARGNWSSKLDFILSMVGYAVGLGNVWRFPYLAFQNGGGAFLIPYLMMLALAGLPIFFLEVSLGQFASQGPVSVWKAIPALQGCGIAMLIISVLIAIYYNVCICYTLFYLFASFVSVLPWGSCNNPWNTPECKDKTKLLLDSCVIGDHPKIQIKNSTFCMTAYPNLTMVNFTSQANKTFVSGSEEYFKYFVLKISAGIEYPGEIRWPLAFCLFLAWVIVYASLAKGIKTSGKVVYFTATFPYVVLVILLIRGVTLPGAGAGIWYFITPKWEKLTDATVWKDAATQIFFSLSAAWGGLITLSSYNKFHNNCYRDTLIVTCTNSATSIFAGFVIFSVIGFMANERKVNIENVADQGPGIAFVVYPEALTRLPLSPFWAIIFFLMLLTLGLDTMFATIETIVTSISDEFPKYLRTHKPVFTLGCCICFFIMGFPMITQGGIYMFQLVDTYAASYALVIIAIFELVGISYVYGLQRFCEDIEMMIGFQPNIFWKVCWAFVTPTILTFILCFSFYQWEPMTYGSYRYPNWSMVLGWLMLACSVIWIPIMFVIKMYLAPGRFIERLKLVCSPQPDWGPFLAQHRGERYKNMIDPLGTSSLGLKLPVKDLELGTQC
The series can be described thus: [3H]glycine transport by GlyT2 mutant in COS7 cells. The class given is cell-based.

For series [4] the following is noted: due to its physiological irreversibility; cited from earlier work.
In a further series the test system is GlyT2. The conditions noted are these: cited from earlier work.
The next series has as its system allodynia. The conditions noted are these: nerve ligation injury, streptozotocin-induced diabetic pain, complete Freund's adjuvant-induced inflammatory pain; cited from earlier work.

Where two headings read alike, the source gives them in different places.

As a reminder, the IC50 is the midpoint of a concentration-inhibition curve. As to `N[C@@H](COC(c1cccc(F)c1)c1ccccc1OCc1ccccc1)C(=O)O` (some centres unmarked) [ALX1393], the “effect on thermal, mechanical, and chemical stimulations” value in series [1] is given as “antinociceptive effect”. The “IC50, inhibition of glycine transport by GlyT1” value on GlyT1 [2] is “low μM range”. The “concentrations at which GlyT1 is inhibited” value with GlyT1 [3] was 0.5 to 1 µM. The IC50 on GlyT2 I292C mutant (read-out: IC50 (Table S1)) was found to be 0.036 ± 0.004 µM.
Consider `COc1cc(C(=O)NCC2(N(C)C)CCCC2)cc(OC)c1OCc1ccccc1` [ORG25543, N-[[1-(dimethylamino)cyclopentyl]methyl]-3,5-dimethoxy-4-(phenylmethoxy)benzamide], for which the toxicity in animals result in series [4] is listed as “generates toxicity in animals”. For the same compound, the “reversibility of GlyT2 inhibition” value with GlyT2 is given as “irreversible GlyT2 inhibitor”. In the series with allodynia, the effect on allodynia result was “reduces allodynia”. Further, half-maximal inhibition against GlyT2 I292C mutant (IC50) was put at 0.024 ± 0.003 µM.

The values above are taken from PMC8691691 (ACS Chemical Neuroscience, 2021).
